Consider 14 compounds from patent US8822688B2, “Imidazo[1,2-a]pyridine derivative” (Astellas Pharma Inc., priority 2010, dated 2014).

Each structure is given as a SMILES string. Counter-ions that a name gives are not always drawn.

This assay deals with T1, human PDE4B2 (Homo sapiens, UniProt Q07343).
T1 construct: FLAG; made in house; host or cells: COS-1 cells (plasmid amplified in E. coli)
T1 sequence (Q07343 1-564 isoform Q07343-2): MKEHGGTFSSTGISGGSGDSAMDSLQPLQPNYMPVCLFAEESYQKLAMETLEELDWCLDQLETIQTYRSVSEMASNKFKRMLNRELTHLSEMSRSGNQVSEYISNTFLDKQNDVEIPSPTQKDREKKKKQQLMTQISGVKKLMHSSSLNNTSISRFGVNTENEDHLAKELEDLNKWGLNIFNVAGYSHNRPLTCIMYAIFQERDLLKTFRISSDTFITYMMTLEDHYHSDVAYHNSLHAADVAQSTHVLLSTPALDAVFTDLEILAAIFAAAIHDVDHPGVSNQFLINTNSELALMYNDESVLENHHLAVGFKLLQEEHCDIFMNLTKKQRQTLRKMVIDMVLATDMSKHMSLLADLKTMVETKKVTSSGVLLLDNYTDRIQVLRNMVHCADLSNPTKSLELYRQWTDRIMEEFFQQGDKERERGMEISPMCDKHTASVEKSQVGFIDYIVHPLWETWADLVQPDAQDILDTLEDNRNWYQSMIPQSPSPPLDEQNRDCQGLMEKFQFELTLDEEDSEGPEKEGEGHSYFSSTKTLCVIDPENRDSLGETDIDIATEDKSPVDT
The assay can be described thus: Human PDE4B activity inhibition test (SPA, [3H]-cAMP). In kind it is biochemical. Particulars: FLAG-tagged human PDE4B2 purified from COS-1 cells; 30 min at room temperature; read-out: IC50 (nM), human PDE4B inhibitory activity. As for the experimental part:
Test Method 1: Human PDE4B Inhibitory Activity
(1) Purification of Human PDE4B Enzyme
Plasmid DNA encoding FLAG-tagged human PDE4B2 was prepared and transfected into E. coli, and mass cultivation was performed. After extracting and purifying the plasmid DNA from the E. coli, the resultant was transfected into COS-1 cells and cultured. After the cells were homogenized, the expressed enzyme was purified using a FLAG peptide affinity column.
(2) Human PDE4B Activity Inhibition Test
1 μl/well of DMSO solution in which various concentrations of test compounds were dissolved and 74 μl/well of the purified enzyme diluted with a buffer were added to 96-well plates, and incubated at room temperature for 10 minutes. A buffer including 40 nM [^3H]-cAMP (Amersham, TRK559) and 4 μM cAMP were added at 25 μl/well and reacted for 30 minutes at room temperature. A suspension (18 mM ZnSO4, 5 mM IBMX, distilled water) of polylysin coated yttrium silicate SPA beads (Amersham, RPNQ0010) was added at 50 μl/well, and the reaction was stopped. After standing for 20 minutes at room temperature, the radioactivity was measured using a top count instrument and set as an index of enzyme activity. For evaluating the enzyme inhibitory activity of the test compound in each experiment, a value of IC50 was calculated with the radiation activity of the well of adding the vehicle (DMSO) and the enzyme as 0% inhibition and the radiation activity of the well of adding only the vehicle and not adding the enzyme as 100% inhibition.
On to `CC1(CO)CCN(c2c3c(c(C(N)=O)c4nc5ccccc5n24)CCC3)CC1` [Example 2], for which the IC50 (usually the point on the concentration scale where inhibition reaches its midpoint) is 13 nM.

Regarding `CC1(CN)CCN(c2c3c(c(C(N)=O)c4nc5ccccc5n24)CCC3)CC1` [Example 18, 11-[4-(aminomethyl)-4-methylpiperidin-1-yl]-2,3-dihydro-1H-cyclopenta[4,5]pyrido[1,2-a]benzimidazole-4-carboxamide dihydrochloride], the IC50 was found to be 18 nM.

For the compound `COC1(CO)CCN(c2c3c(c(C(N)=O)c4nc5ccccc5n24)CCSC3)CC1` [Example 16], the IC50 is 15 nM.

Consider `COC1(CO)CCN(c2c3c(c(C(N)=O)c4nc5ccccc5n24)CC(C)(C)C3)CC1` [Example 12], for which the IC50 was 2.7 nM.

In the case of `CO[C@@]1(CO)CCN(c2c3c(c(C(N)=O)c4nc5ccccc5n24)CC(C)(C)C3)C[C@@H]1F` (relative stereo) [Example 22, rel-11-[(3R,4S)-3-fluoro-4-(hydroxymethyl)-4-methoxypiperidin-1-yl]-2,2-dimethyl-2,3-dihydro-1H-cyclopenta[4,5]pyrido[1,2-a]benzimidazole-4-carboxamide], the IC50 is 11.8 nM.

As to `N#CC1(CO)CCN(c2c3c(c(C(N)=O)c4nc5ccccc5n24)CCC3)CC1` [Example 5], the IC50 was 14 nM.

On to `NC(=O)c1c2c(c(N3CCC4(CO)CC4C3)n3c1nc1ccccc13)CCC2` (centres unmarked) [Example 23, 11-[6-(hydroxymethyl)-3-azabicyclo[4.1.0]hept-3-yl]-2,3-dihydro-1H-cyclopenta[4,5]pyrido[1,2-a]benzimidazole-4-carboxamide hydrochloride], for which the IC50 was 42 nM.

For `COC1(CO)CCN(c2c3c(c(C(N)=O)c4nc5ccccc5n24)CCC3)CC1` [Example 8], the IC50 was 8 nM.

In the case of `COC1(CO)CCN(c2c3c(c(C(N)=O)c4nc5ccccc5n24)C2CCC3C2)CC1` (centres unmarked) [Example 14], the IC50 turned out to be 3.3 nM.

With `CO[C@]1(CO)CCN(c2c3c(c(C(N)=O)c4nc5ccccc5n24)CCC3)C[C@H]1F` (relative stereo) [Example 10], the IC50 stood at 48 nM.

As for `NC(=O)c1c2c(c(N3CCC4(CCNC4)CC3)n3c1nc1ccccc13)CCC2` [Example 26], the IC50 stood at 13 nM.

`COC1(CO)CCN(c2c3c(c(C(N)=O)c4nc5c(n24)CCCC5)CCC3)CC1` [Example 15]: the 50% inhibitory concentration (IC50) amounted to 26 nM.

In the case of `NC(=O)c1c2c(c(N3CCC4(CC3)CNC4)n3c1nc1ccccc13)CCC2` [Example 25, 11-(2,7-diazaspiro[3.5]non-7-yl)-2,3-dihydro-1H-cyclopenta[4,5]pyrido[1,2-a]benzimidazole-4-carboxamide dihydrochloride], the IC50 amounted to 8.2 nM.

`CC1(C)CCc2c(c(N3CCC(C)(CO)CC3)n3c(nc4ccccc43)c2C(N)=O)C1` [Example 4]: the IC50 was determined as 86 nM.
